# Experiments:
# Test in all cases: relative viability (nuclei count vs DMSO), 5 days (fraction); higher = more cells survive
# Bosutinib = compound: COc1cc(Nc2c(C#N)cnc3cc(OCCCN4CCN(C)CC4)c(OC)cc23)c(Cl)cc1Cl [Bosutinib]
# Method in brief: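 Only plates meeting two conditions passed: control CV below 25% and at least one doubling. Lung cancer cell lines, kept overnight at 37 °C in 1536-well plates, were pinned with five library-drug doses (not always all listed) √10 apart on vehicle-anchored plates and grown 5 days without medium change. A one-step fix, permeabilisation and Hoechst stain preceded 4× imaging and MetaXpress nuclear counting. Viability equals treated-well nuclei divided by vehicle-well nuclei, as the median over plates.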
# Bosutinib + Phenformin = compound: COc1cc(Nc2c(C#N)cnc3cc(OCCCN4CCN(C)CC4)c(OC)cc23)c(Cl)cc1Cl [Bosutinib] + N=C(N)NC(=N)NCCc1ccccc1 [Phenformin] (partner 250 µM)
# Method in brief: (§1)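 Relative viability is defined as nuclei in treated wells over nuclei in vehicle wells. Duplicate plates were run and medians reported. Lung cancer cell lines in 1536-well plates were dosed by pin tool one day after seeding, with one drug or with a fixed anchor-drug dose plus five library-drug doses (not always all listed) in √10 steps, and nuclei were counted after 5 days.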
# Bosutinib + Foretinib = compound: COc1cc(Nc2c(C#N)cnc3cc(OCCCN4CCN(C)CC4)c(OC)cc23)c(Cl)cc1Cl [Bosutinib] + COc1cc2c(Oc3ccc(NC(=O)C4(C(=O)Nc5ccc(F)cc5)CC4)cc3F)ccnc2cc1OCCCN1CCOCC1 [Foretinib] (partner 0.25 µM)
# Method in brief: as §1
# Bosutinib + Dasatinib = compound: COc1cc(Nc2c(C#N)cnc3cc(OCCCN4CCN(C)CC4)c(OC)cc23)c(Cl)cc1Cl [Bosutinib] + Cc1nc(Nc2ncc(C(=O)Nc3c(C)cccc3Cl)s2)cc(N2CCN(CCO)CC2)n1 [Dasatinib] (partner 0.075 µM)
# Method in brief: as §1
# Bosutinib + Luminespib = compound: COc1cc(Nc2c(C#N)cnc3cc(OCCCN4CCN(C)CC4)c(OC)cc23)c(Cl)cc1Cl [Bosutinib] + CCNC(=O)c1noc(-c2cc(C(C)C)c(O)cc2O)c1-c1ccc(CN2CCOCC2)cc1 [Luminespib] (partner 0.01 µM)
# Method in brief: as §1
# Bosutinib + Tozasertib = compound: COc1cc(Nc2c(C#N)cnc3cc(OCCCN4CCN(C)CC4)c(OC)cc23)c(Cl)cc1Cl [Bosutinib] + Cc1cc(Nc2cc(N3CCN(C)CC3)nc(Sc3ccc(NC(=O)C4CC4)cc3)n2)n[nH]1 [Tozasertib] (partner 0.1 µM)
# Method in brief: as §1
# Bosutinib + OSI-027 = compound: COc1cc(Nc2c(C#N)cnc3cc(OCCCN4CCN(C)CC4)c(OC)cc23)c(Cl)cc1Cl [Bosutinib] + COc1cccc2cc(-c3nc([C@H]4CC[C@H](C(=O)O)CC4)n4ncnc(N)c34)[nH]c12 [OSI-027] (partner 0.5 µM)
# Method in brief: as §1
# Bosutinib + Pictilisib = compound: COc1cc(Nc2c(C#N)cnc3cc(OCCCN4CCN(C)CC4)c(OC)cc23)c(Cl)cc1Cl [Bosutinib] + CS(=O)(=O)N1CCN(Cc2cc3nc(-c4cccc5[nH]ncc45)nc(N4CCOCC4)c3s2)CC1 [Pictilisib] (partner 1 µM)
# Method in brief: as §1
# Bosutinib + Navitoclax = compound: COc1cc(Nc2c(C#N)cnc3cc(OCCCN4CCN(C)CC4)c(OC)cc23)c(Cl)cc1Cl [Bosutinib] + CC1(C)CCC(c2ccc(Cl)cc2)=C(CN2CCN(c3ccc(C(=O)NS(=O)(=O)c4ccc(N[C@H](CCN5CCOCC5)CSc5ccccc5)c(S(=O)(=O)C(F)(F)F)c4)cc3)CC2)C1 [Navitoclax] (partner 0.5 µM)
# Method in brief: as §1
# Bosutinib + Olaparib = compound: COc1cc(Nc2c(C#N)cnc3cc(OCCCN4CCN(C)CC4)c(OC)cc23)c(Cl)cc1Cl [Bosutinib] + O=C(c1cc(Cc2n[nH]c(=O)c3ccccc23)ccc1F)N1CCN(C(=O)C2CC2)CC1 [Olaparib] (partner 8 µM)
# Method in brief: as §1
# Bosutinib + Lapatinib = compound: COc1cc(Nc2c(C#N)cnc3cc(OCCCN4CCN(C)CC4)c(OC)cc23)c(Cl)cc1Cl [Bosutinib] + CS(=O)(=O)CCNCc1ccc(-c2ccc3ncnc(Nc4ccc(OCc5cccc(F)c5)c(Cl)c4)c3c2)o1 [Lapatinib] (partner 2 µM)
# Method in brief: as §1
# Bosutinib + Crizotinib = compound: COc1cc(Nc2c(C#N)cnc3cc(OCCCN4CCN(C)CC4)c(OC)cc23)c(Cl)cc1Cl [Bosutinib] + C[C@@H](Oc1cc(-c2cnn(C3CCNCC3)c2)cnc1N)c1c(Cl)ccc(F)c1Cl [Crizotinib] (partner 1 µM)
# Method in brief: as §1
# Bosutinib + Linsitinib = compound: COc1cc(Nc2c(C#N)cnc3cc(OCCCN4CCN(C)CC4)c(OC)cc23)c(Cl)cc1Cl [Bosutinib] + C[C@]1(O)C[C@@H](c2nc(-c3ccc4ccc(-c5ccccc5)nc4c3)c3c(N)nccn32)C1 [Linsitinib] (partner 1 µM)
# Method in brief: as §1
# Bosutinib + Decitabine = compound: COc1cc(Nc2c(C#N)cnc3cc(OCCCN4CCN(C)CC4)c(OC)cc23)c(Cl)cc1Cl [Bosutinib] + Nc1ncn([C@H]2C[C@H](O)[C@@H](CO)O2)c(=O)n1 [Decitabine] (partner 2 µM)
# Method in brief: as §1
# Bosutinib + Alpelisib = compound: COc1cc(Nc2c(C#N)cnc3cc(OCCCN4CCN(C)CC4)c(OC)cc23)c(Cl)cc1Cl [Bosutinib] + Cc1nc(NC(=O)N2CCC[C@H]2C(N)=O)sc1-c1ccnc(C(C)(C)C(F)(F)F)c1 [Alpelisib] (partner 2 µM)
# Method in brief: as §1
# Bosutinib + Bortezomib = compound: COc1cc(Nc2c(C#N)cnc3cc(OCCCN4CCN(C)CC4)c(OC)cc23)c(Cl)cc1Cl [Bosutinib] + CC(C)C[C@H](NC(=O)[C@H](Cc1ccccc1)NC(=O)c1cnccn1)B(O)O [Bortezomib] (partner 0.002 µM)
# Method in brief: as §1
cell line,measurement,setting,value
NCI-H1623,relative viability,Bosutinib; 0.01 µM,0.891
same,relative viability,Bosutinib; 0.03162 µM,0.95
same,relative viability,Bosutinib; 0.1 µM,0.979
same,relative viability,Bosutinib; 1 µM,0.724
same,relative viability,Bosutinib + Phenformin; first compound 0.01 µM,0.534
same,relative viability,Bosutinib + Phenformin; first compound 0.03162 µM,0.591
same,relative viability,Bosutinib + Phenformin; first compound 0.1 µM,0.51
same,relative viability,Bosutinib + Phenformin; first compound 1 µM,0.51
same,relative viability,Bosutinib + Foretinib; first compound 0.01 µM,0.854
same,relative viability,Bosutinib + Foretinib; first compound 0.03162 µM,0.846
same,relative viability,Bosutinib + Foretinib; first compound 0.1 µM,0.866
same,relative viability,Bosutinib + Foretinib; first compound 1 µM,0.64
same,relative viability,Bosutinib + Dasatinib; first compound 0.01 µM,0.38
same,relative viability,Bosutinib + Dasatinib; first compound 0.03162 µM,0.555
same,relative viability,Bosutinib + Dasatinib; first compound 0.1 µM,0.542
same,relative viability,Bosutinib + Dasatinib; first compound 1 µM,0.57
same,relative viability,Bosutinib + Luminespib; first compound 0.01 µM,0.645
same,relative viability,Bosutinib + Luminespib; first compound 0.03162 µM,0.565
same,relative viability,Bosutinib + Luminespib; first compound 0.1 µM,0.517
same,relative viability,Bosutinib + Luminespib; first compound 1 µM,0.497
same,relative viability,Bosutinib + Tozasertib; first compound 0.01 µM,0.474
same,relative viability,Bosutinib + Tozasertib; first compound 0.03162 µM,0.425
same,relative viability,Bosutinib + Tozasertib; first compound 0.1 µM,0.428
same,relative viability,Bosutinib + Tozasertib; first compound 1 µM,0.399
same,relative viability,Bosutinib + OSI-027; first compound 0.01 µM,0.432
same,relative viability,Bosutinib + OSI-027; first compound 0.03162 µM,0.418
same,relative viability,Bosutinib + OSI-027; first compound 0.1 µM,0.45
same,relative viability,Bosutinib + OSI-027; first compound 1 µM,0.416
A549,relative viability,Bosutinib; 0.01 µM,1
same,relative viability,Bosutinib; 0.03162 µM,1.04
same,relative viability,Bosutinib; 0.1 µM,1.01
same,relative viability,Bosutinib; 1 µM,0.939
same,relative viability,Bosutinib + Pictilisib; first compound 0.01 µM,0.442
same,relative viability,Bosutinib + Pictilisib; first compound 0.03162 µM,0.447
same,relative viability,Bosutinib + Pictilisib; first compound 0.1 µM,0.494
same,relative viability,Bosutinib + Pictilisib; first compound 1 µM,0.513
same,relative viability,Bosutinib + Navitoclax; first compound 0.01 µM,1.2
same,relative viability,Bosutinib + Navitoclax; first compound 0.03162 µM,1.26
same,relative viability,Bosutinib + Navitoclax; first compound 0.1 µM,1.27
same,relative viability,Bosutinib + Navitoclax; first compound 1 µM,1.07
same,relative viability,Bosutinib + Phenformin; first compound 0.01 µM,0.197
same,relative viability,Bosutinib + Phenformin; first compound 0.03162 µM,0.169
same,relative viability,Bosutinib + Phenformin; first compound 0.1 µM,0.149
same,relative viability,Bosutinib + Phenformin; first compound 1 µM,0.124
same,relative viability,Bosutinib + Foretinib; first compound 0.01 µM,0.946
same,relative viability,Bosutinib + Foretinib; first compound 0.03162 µM,1
same,relative viability,Bosutinib + Foretinib; first compound 0.1 µM,0.92
same,relative viability,Bosutinib + Foretinib; first compound 1 µM,0.908
same,relative viability,Bosutinib + Olaparib; first compound 0.01 µM,0.52
same,relative viability,Bosutinib + Olaparib; first compound 0.03162 µM,0.447
same,relative viability,Bosutinib + Olaparib; first compound 0.1 µM,0.357
same,relative viability,Bosutinib + Olaparib; first compound 1 µM,0.286
same,relative viability,Bosutinib + Lapatinib; first compound 0.01 µM,0.949
same,relative viability,Bosutinib + Lapatinib; first compound 0.03162 µM,1.05
same,relative viability,Bosutinib + Lapatinib; first compound 0.1 µM,1.06
same,relative viability,Bosutinib + Lapatinib; first compound 1 µM,1.03
same,relative viability,Bosutinib + Crizotinib; first compound 0.01 µM,0.761
same,relative viability,Bosutinib + Crizotinib; first compound 0.03162 µM,0.66
same,relative viability,Bosutinib + Crizotinib; first compound 0.1 µM,0.724
same,relative viability,Bosutinib + Crizotinib; first compound 1 µM,1.01
same,relative viability,Bosutinib + Linsitinib; first compound 0.01 µM,0.676
same,relative viability,Bosutinib + Linsitinib; first compound 0.03162 µM,0.624
same,relative viability,Bosutinib + Linsitinib; first compound 0.1 µM,0.55
same,relative viability,Bosutinib + Linsitinib; first compound 1 µM,0.499
same,relative viability,Bosutinib + Decitabine; first compound 0.01 µM,0.279
same,relative viability,Bosutinib + Decitabine; first compound 0.03162 µM,0.226
same,relative viability,Bosutinib + Decitabine; first compound 0.1 µM,0.237
same,relative viability,Bosutinib + Decitabine; first compound 1 µM,0.261
same,relative viability,Bosutinib + Alpelisib; first compound 0.01 µM,0.731
same,relative viability,Bosutinib + Alpelisib; first compound 0.03162 µM,0.78
same,relative viability,Bosutinib + Alpelisib; first compound 0.1 µM,0.734
same,relative viability,Bosutinib + Alpelisib; first compound 1 µM,0.621
NCI-H1299,relative viability,Bosutinib; 0.01 µM,1.01
same,relative viability,Bosutinib; 0.03162 µM,1.01
same,relative viability,Bosutinib; 0.1 µM,1.03
same,relative viability,Bosutinib; 1 µM,1.02
same,relative viability,Bosutinib + Bortezomib; first compound 0.01 µM,1
same,relative viability,Bosutinib + Bortezomib; first compound 0.03162 µM,1.06
same,relative viability,Bosutinib + Bortezomib; first compound 0.1 µM,1.01
same,relative viability,Bosutinib + Bortezomib; first compound 1 µM,1
same,relative viability,Bosutinib + Pictilisib; first compound 0.01 µM,0.777
same,relative viability,Bosutinib + Pictilisib; first compound 0.03162 µM,0.989
same,relative viability,Bosutinib + Pictilisib; first compound 0.1 µM,0.858
same,relative viability,Bosutinib + Pictilisib; first compound 1 µM,0.515
same,relative viability,Bosutinib + Navitoclax; first compound 0.01 µM,1.05
same,relative viability,Bosutinib + Navitoclax; first compound 0.03162 µM,1.06
same,relative viability,Bosutinib + Navitoclax; first compound 0.1 µM,0.995
same,relative viability,Bosutinib + Navitoclax; first compound 1 µM,1.03
same,relative viability,Bosutinib + Foretinib; first compound 0.01 µM,1.16
same,relative viability,Bosutinib + Foretinib; first compound 0.03162 µM,1.14
same,relative viability,Bosutinib + Foretinib; first compound 0.1 µM,1.13
same,relative viability,Bosutinib + Foretinib; first compound 1 µM,0.989
same,relative viability,Bosutinib + Olaparib; first compound 0.01 µM,1
same,relative viability,Bosutinib + Olaparib; first compound 0.03162 µM,0.982
same,relative viability,Bosutinib + Olaparib; first compound 0.1 µM,0.994
same,relative viability,Bosutinib + Olaparib; first compound 1 µM,0.96
same,relative viability,Bosutinib + Lapatinib; first compound 0.01 µM,0.969
same,relative viability,Bosutinib + Lapatinib; first compound 0.03162 µM,0.99
same,relative viability,Bosutinib + Lapatinib; first compound 0.1 µM,0.903
same,relative viability,Bosutinib + Lapatinib; first compound 1 µM,0.916
same,relative viability,Bosutinib + Crizotinib; first compound 0.01 µM,0.947
same,relative viability,Bosutinib + Crizotinib; first compound 0.03162 µM,1
same,relative viability,Bosutinib + Crizotinib; first compound 0.1 µM,0.965
same,relative viability,Bosutinib + Crizotinib; first compound 1 µM,0.942
same,relative viability,Bosutinib + Linsitinib; first compound 0.01 µM,1.05
same,relative viability,Bosutinib + Linsitinib; first compound 0.03162 µM,0.983
same,relative viability,Bosutinib + Linsitinib; first compound 0.1 µM,1.07
same,relative viability,Bosutinib + Linsitinib; first compound 1 µM,0.92
same,relative viability,Bosutinib + Alpelisib; first compound 0.01 µM,1.05
same,relative viability,Bosutinib + Alpelisib; first compound 0.03162 µM,1.03
same,relative viability,Bosutinib + Alpelisib; first compound 0.1 µM,1.05
same,relative viability,Bosutinib + Alpelisib; first compound 1 µM,1.2

# Reference: the supplement of paper PMC10307832
